Measurements from ChEMBL document CHEMBL3885861, “Open TG-GATES”.

Species: Rattus norvegicus
Assay: Open TG-GATES - Regimen: Single
Assay type: toxicity, organism-based, Sprague-Dawley
Design: regimen Single, gender Male, age 6 weeks
Conditions: in vivo, po, 0 mg/kg, route gavage, dose level Control; for APTT / Bas / Eos / Fbg / Hb / Ht / Lym / MCH / MCHC / MCV / Mono / Neu / PT / Plat / RBC / Ret / WBC: tissue Blood; for LIVER: tissue Liver; for A/G / ALP / ALT / AST / BUN / CRE / Ca / Cl / DBIL / GLC / IP / K / LDH / Na / PL / RALB / TBIL / TC / TG / TP / gamma-GTP: tissue Plasma

Structure (SMILES): C=C(C)[C@H]1Cc2c(ccc3c2O[C@@H]2COc4cc(OC)c(OC)cc4[C@@H]2C3=O)O1 [ROTENONE]
- TERMINAL_BW (3 h): 198.4 g
- APTT (3 h): 15 s
- Bas (3 h): 0%
- Eos (3 h): 1%
- Fbg (3 h): 207.8 mg/dL
- Hb (3 h): 12.6 g/dL
- Ht (3 h): 38.3%
- Lym (3 h): 76.8%
- MCH (3 h): 21 pg
- MCHC (3 h): 33%
- MCV (3 h): 63.7 fL
- Mono (3 h): 5%
- Neu (3 h): 17.6%
- PT (3 h): 12.1 s
- Plat (3 h): 131.6 x10_4/uL
- RBC (3 h): 601.6 x10_4/ul
- Ret (3 h): 9.8%
- WBC (3 h): 98.8 x10_2/uL
- LIVER (3 h): 9.4 g
- A/G (3 h): 2.3
- ALP (3 h): 1432.2 IU/L
- ALT (3 h): 35.8 IU/L
- AST (3 h): 70.6 IU/L
- BUN (3 h): 12.8 mg/dL
- CRE (3 h): 0.3 mg/dL
- Ca (3 h): 11 mg/dL
- Cl (3 h): 104.6 meq/L
- DBIL (3 h): 0.01 mg/dL
- GLC (3 h): 188.2 mg/dL
- IP (3 h): 8.3 mg/dL
- K (3 h): 4.4 meq/L
- LDH (3 h): 80.6 IU/L
- Na (3 h): 140.4 meq/L
- PL (3 h): 139.6 mg/dL
- RALB (3 h): 3.7 g/dL
- TBIL (3 h): 0.04 mg/dL
- TC (3 h): 82.8 mg/dL
- TG (3 h): 61.2 mg/dL
- TP (3 h): 5.3 g/dL
- gamma-GTP (3 h): 1 IU/L
- TERMINAL_BW (6 h): 197 g
- APTT (6 h): 15.9 s
- Bas (6 h): 0%
- Eos (6 h): 1%
- Fbg (6 h): 218 mg/dL
- Hb (6 h): 13.2 g/dL
- Ht (6 h): 40.3%
- Lym (6 h): 72.2%
- MCH (6 h): 21.2 pg
- MCHC (6 h): 32.8%
- MCV (6 h): 64.5 fL
- Mono (6 h): 9%
- Neu (6 h): 17.6%
- PT (6 h): 12.1 s
- Plat (6 h): 122.2 x10_4/uL
- RBC (6 h): 625.8 x10_4/ul
- Ret (6 h): 8.1%
- WBC (6 h): 92.8 x10_2/uL
- LIVER (6 h): 8.7 g
- A/G (6 h): 2.3
- ALP (6 h): 1181 IU/L
- ALT (6 h): 35.4 IU/L
- AST (6 h): 67 IU/L
- BUN (6 h): 9.6 mg/dL
- CRE (6 h): 0.4 mg/dL
- Ca (6 h): 10.9 mg/dL
- Cl (6 h): 103.4 meq/L
- DBIL (6 h): 0.01 mg/dL
- GLC (6 h): 181.8 mg/dL
- IP (6 h): 9 mg/dL
- K (6 h): 4.4 meq/L
- LDH (6 h): 87 IU/L
- Na (6 h): 139.2 meq/L
- PL (6 h): 139.8 mg/dL
- RALB (6 h): 3.8 g/dL
- TBIL (6 h): 0.048 mg/dL
- TC (6 h): 81.8 mg/dL
- TG (6 h): 82.8 mg/dL
- TP (6 h): 5.4 g/dL
- gamma-GTP (6 h): 0.4 IU/L
- TERMINAL_BW (9 h): 190.2 g
- APTT (9 h): 16 s
- Bas (9 h): 0%
- Eos (9 h): 1%
- Fbg (9 h): 209 mg/dL
- Hb (9 h): 13 g/dL
- Ht (9 h): 39.4%
- Lym (9 h): 74.4%
- MCH (9 h): 21.4 pg
- MCHC (9 h): 32.9%
- MCV (9 h): 64.8 fL
- Mono (9 h): 8.4%
- Neu (9 h): 16.6%
- PT (9 h): 12.2 s
- Plat (9 h): 123.2 x10_4/uL
- RBC (9 h): 609 x10_4/ul
- Ret (9 h): 9.2%
- WBC (9 h): 95 x10_2/uL
- LIVER (9 h): 8 g
- A/G (9 h): 2.5
- ALP (9 h): 1388.2 IU/L
- ALT (9 h): 33.6 IU/L
- AST (9 h): 64.4 IU/L
- BUN (9 h): 9.8 mg/dL
- CRE (9 h): 0.3 mg/dL
- Ca (9 h): 11 mg/dL
- Cl (9 h): 104.2 meq/L
- DBIL (9 h): 0.01 mg/dL
- GLC (9 h): 182.2 mg/dL
- IP (9 h): 10.2 mg/dL
- K (9 h): 4.1 meq/L
- LDH (9 h): 74.6 IU/L
- Na (9 h): 140 meq/L
- PL (9 h): 134.2 mg/dL
- RALB (9 h): 3.8 g/dL
- TBIL (9 h): 0.05 mg/dL
- TC (9 h): 81.4 mg/dL
- TG (9 h): 42.2 mg/dL
- TP (9 h): 5.3 g/dL
- gamma-GTP (9 h): 1 IU/L
- TERMINAL_BW (24 h): 212.6 g
- APTT (24 h): 15.6 s
- Bas (24 h): 0%
- Eos (24 h): 1%
- Fbg (24 h): 220.6 mg/dL
- Hb (24 h): 12.6 g/dL
- Ht (24 h): 38.4%
- Lym (24 h): 69%
- MCH (24 h): 21.6 pg
- MCHC (24 h): 32.8%
- MCV (24 h): 65.9 fL
- Mono (24 h): 9.8%
- Neu (24 h): 20%
- PT (24 h): 12 s
- Plat (24 h): 131.2 x10_4/uL
- RBC (24 h): 582.6 x10_4/ul
- Ret (24 h): 8.3%
- WBC (24 h): 108.8 x10_2/uL
- LIVER (24 h): 10.1 g
- A/G (24 h): 2.5
- ALP (24 h): 1476.8 IU/L
- ALT (24 h): 48 IU/L
- AST (24 h): 75.8 IU/L
- BUN (24 h): 18 mg/dL
- CRE (24 h): 0.4 mg/dL
- Ca (24 h): 11.5 mg/dL
- Cl (24 h): 103.8 meq/L
- DBIL (24 h): 0.014 mg/dL
- GLC (24 h): 181.6 mg/dL
- IP (24 h): 7.2 mg/dL
- K (24 h): 4.8 meq/L
- LDH (24 h): 93.8 IU/L
- Na (24 h): 139 meq/L
- PL (24 h): 148.4 mg/dL
- RALB (24 h): 3.9 g/dL
- TBIL (24 h): 0.042 mg/dL
- TC (24 h): 81.2 mg/dL
- TG (24 h): 123.6 mg/dL
- TP (24 h): 5.5 g/dL
- gamma-GTP (24 h): 0.6 IU/L
